Results published in US9862716B2, “TRKA kinase inhibitors, compositions and methods thereof” (Merck Sharp & Dohme Corp., priority 2014, dated 2018).
pIC50: −log10 of the molar value.

The compounds below were run against T1, human TrkA receptor (Homo sapiens, UniProt P04629) (assay: DiscoverX PathHunter TrkA functional assay (NGF-stimulated U2OS cells)). Conditions: U2OS cells expressing human TrkA-PK, Shc1-EA and p75NTR; compound 1 h, then NGF at ~80% of maximal response for 3 h; luminescence.
T1 construct: host or cells: U2OS cells (PathHunter cell line)
T1 sequence (P04629 33-796): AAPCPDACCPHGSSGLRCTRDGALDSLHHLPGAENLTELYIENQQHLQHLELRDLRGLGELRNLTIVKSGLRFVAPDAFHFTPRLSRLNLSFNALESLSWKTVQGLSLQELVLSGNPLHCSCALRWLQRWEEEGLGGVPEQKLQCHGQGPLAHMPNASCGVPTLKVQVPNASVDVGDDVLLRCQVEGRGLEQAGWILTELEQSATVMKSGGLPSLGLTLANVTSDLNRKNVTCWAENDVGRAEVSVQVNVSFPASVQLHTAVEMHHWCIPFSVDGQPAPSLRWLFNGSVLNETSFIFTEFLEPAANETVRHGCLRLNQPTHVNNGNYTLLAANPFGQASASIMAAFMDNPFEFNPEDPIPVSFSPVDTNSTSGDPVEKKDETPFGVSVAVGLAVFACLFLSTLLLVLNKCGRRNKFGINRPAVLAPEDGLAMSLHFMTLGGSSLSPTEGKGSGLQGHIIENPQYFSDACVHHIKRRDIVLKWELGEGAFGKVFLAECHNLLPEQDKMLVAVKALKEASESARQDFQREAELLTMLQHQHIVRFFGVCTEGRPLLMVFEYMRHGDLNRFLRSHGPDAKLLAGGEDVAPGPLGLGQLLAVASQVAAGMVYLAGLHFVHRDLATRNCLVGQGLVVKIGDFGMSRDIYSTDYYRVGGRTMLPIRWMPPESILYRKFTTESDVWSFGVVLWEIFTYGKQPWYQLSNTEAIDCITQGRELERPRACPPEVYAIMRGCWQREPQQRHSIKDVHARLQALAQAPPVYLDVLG
Format: cell-based
Protocol: TrkA functional activity was measured using a DiscoverX PathHunter assay. In this assay, U2OS cells express the human TrkA receptor as a fusion with the weakly complementing fragment of B-galactosidase, which DiscoverX calls “Prolink (PK)”; additionally, Shc1 is fused with a larger fragment, which is called “Enzyme Acceptor (EA)”. Activation of the TrkA receptor, upon NGF addition, results in the kinase domain being phosphorylated, resulting in subsequent recruitment of Shc1-EA protein. That recruitment results in an active B-galactosidase enzyme that is detected by addition of a chemiluminescent substrate. The human p75^NTR protein was also expressed as a co-receptor for NGF.
All reagents were purchased from DiscoverX, except for the receptor agonists (NGF, BDNF, NT3) which were purchased from Peprotech. Cells were expanded and frozen into cryovials, and stored in the vapor phase of liquid nitrogen, and thawed immediately before use. Thawed cells were added to a 384-well plate at 7500 cells/well, and allowed to incubate overnight. Compound at various concentrations was added the following morning and allowed to incubate on cells for 1 h. Then, NGF was added at a concentration sufficient to elicit ˜80% of a maximal response and allowed to incubate for 3 h at ambient temperature. DiscoverX PathHunter detection reagent was then added and the plate was further incubated for 1 h in the dark. The plate was then read via luminescence on the Perkin Elmer Envision.

Q: With Cn1ccc(-c2cc(C(=O)Nc3c(-c4ccccc4)nc4ccc(F)cn34)ccc2C(F)(F)F)n1 [Compound 21, N-(6-fluoro-2-phenylimidazo[1,2-a]pyridin-3-yl)-3-(1-methyl-1H-pyrazol-3-yl)-4-(trifluoromethyl) benzamide] as the compound, how does the pIC50 read?
A: The pIC50 was 8.42.

Q: Cn1ccc(-c2cc(C(=O)Nc3c(-c4ccccc4)nc4c(F)cccn34)ccc2C(F)(F)F)n1 [Compound 22, N-(8-fluoro-2-phenylimidazo[1,2-a]pyridin-3-yl)-3-(1-methyl-1H-pyrazol-3-yl)-4-(trifluoromethyl) benzamide] was tested. Which pIC50 did it give?
A: The pIC50 was 8.72.

Q: With Cn1ccc(-c2cc(C(=O)Nc3c(-c4ccncc4)nc4ccccn34)c(Cl)cc2C(F)(F)F)n1 [Compound 23, 2-chloro-5-(1-methyl-1H-pyrazol-3-yl)-N-(2-pyridin-4-ylimidazo[1,2-a]pyridin-3-yl)-4-(trifluoromethyl) benzamide] as the compound, how does the pIC50 read?
A: Its pIC50 is 8.70.

Q: How did the pIC50 turn out when Cn1ccc(-c2cc(C(=O)Nc3c(-c4ccccc4)nc4ncccn34)c(Cl)cc2C(F)(F)F)n1 [Compound 24, 2-chloro-5-(1-methyl-1H-pyrazol-3-yl)-N-(2-phenylimidazo[1,2-a]pyrimidin-3-yl)-4-(trifluoromethyl) benzamide] was run?
A: The pIC50 was 8.55.

Q: With CNC(=O)c1ccn2c(NC(=O)c3ccc(C(F)(F)F)c(-c4ccn(C)n4)c3)c(-c3ccccc3)nc2c1 [Compound 25, N-methyl-3-({[3-(1-methyl-1H-pyrazol-3-yl)-4-(trifluoromethyl)phenyl]carbonyl}amino)-2-phenylimidazo[1,2-a]pyridine-7-carboxamide] as the compound, how does the pIC50 read?
A: The pIC50 was 8.85.

Q: How did the pIC50 turn out when Cn1ccc(-c2cc(C(=O)Nc3c(-c4ccccc4)nc4cc(CO)ccn34)ccc2C(F)(F)F)n1 [Compound 26, N-[7-(hydroxymethyl)-2-phenylimidazo[1,2-a]pyridin-3-yl]-3-(1-methyl-1H-pyrazol-3-yl)-4-(trifluoromethyl) benzamide] was run?
A: Its pIC50 is 8.85.

Q: With Cn1ccc(-c2cc(C(=O)Nc3c(-c4ccccc4)nc4cc(C(C)(C)O)ccn34)ccc2C(F)(F)F)n1 [Compound 27, N-[7-(1-hydroxy-1-methylethyl)-2-phenylimidazo[1,2-a]pyridin-3-yl]-3-(1-methyl-1H-pyrazol-3-yl)-4-(trifluoromethyl) benzamide] as the compound, how does the pIC50 read?
A: The pIC50 was 8.74.

Q: CN(C)C(=O)c1ccn2c(NC(=O)c3ccc(C(F)(F)F)c(-c4ccn(C)n4)c3)c(-c3ccccc3)nc2c1 [Compound 28, N,N-dimethyl-3-({[3-(1-methyl-1H-pyrazol-3-yl)-4-(trifluoromethyl)phenyl]carbonyl}amino)-2-phenylimidazo[1,2-a]pyridine-7-carboxamide] was tested. Which pIC50 did it give?
A: Its pIC50 is 8.89.

Q: Cn1ccc(-c2cc(C(=O)Nc3c(-c4ccccc4)nc4cc(C(=O)N5CCC5)ccn34)ccc2C(F)(F)F)n1 [Compound 29, N-[7-(azetidin-1-ylcarbonyl)-2-phenylimidazo[1,2-a]pyridin-3-yl]-3-(1-methyl-1H-pyrazol-3-yl)-4-(trifluoromethyl) benzamide] was tested. Which pIC50 did it give?
A: The pIC50 was 8.85.

Q: How did the pIC50 turn out when O=C(Nc1c(-c2ccccc2)nc2ccccn12)c1cc(-c2ncccn2)c(Cl)cc1F [Compound 30, 4-chloro-2-fluoro-N-(2-phenylimidazo[1,2-a]pyridin-3-yl)-5-pyrimidin-2-ylbenzamide] was run?
A: The pIC50 was 7.40.

Q: How did the pIC50 turn out when Cn1ccc(-c2cc(C(=O)Nc3nc4ccccc4nc3-c3ccccc3)ccc2C(F)(F)F)n1 [Compound 31, 3-(1-methyl-1H-pyrazol-3-yl)-N-(3-phenylquinoxalin-2-yl)-4-(trifluoromethyl) benzamide] was run?
A: Its pIC50 is 7.57.

Q: Cn1ccc(-c2cc(C(=O)Nc3c(-c4ccccc4)nc4ccccn34)c(O)cc2C(F)(F)F)n1 [Compound 32, 2-hydroxy-5-(1-methyl-1H-pyrazol-3-yl)-N-(2-phenylimidazo[1,2-a]pyridin-3-yl)-4-(trifluoromethyl) benzamide] was tested. Which pIC50 did it give?
A: The pIC50 was 6.32.

Q: With Cn1ccc(-c2cc(C(=O)Nc3c(-c4ccccc4)nc4ccccn34)c(C#N)cc2C(F)(F)F)n1 [Compound 33, 2-cyano-5-(1-methyl-1H-pyrazol-3-yl)-N-(2-phenylimidazo[1,2-a]pyridin-3-yl)-4-(trifluoromethyl) benzamide] as the compound, how does the pIC50 read?
A: The pIC50 was 6.27.

Q: With O=C(Nc1c(-c2ccccc2)nc2ccccn12)c1ccc(C(F)(F)F)c(-c2nc[nH]n2)c1 [Compound 34, N-(2-phenylimidazo[1,2-a]pyridin-3-yl)-3-(1H-1,2,4-triazol-3-yl)-4-(trifluoromethyl) benzamide] as the compound, how does the pIC50 read?
A: The pIC50 was 7.24.

Q: Cn1ccc(-c2cc(C(=O)Nc3c(-c4ccccc4)nc4ccccn34)c(F)cc2C(F)(F)F)n1 [Compound 35, 2-fluoro-5-(1-methyl-1H-pyrazol-3-yl)-N-(2-phenylimidazo[1,2-a]pyridin-3-yl)-4-(trifluoromethyl) benzamide] was tested. Which pIC50 did it give?
A: The pIC50 was 9.31.

Q: Cn1ccc(-c2cc(C(=O)Nc3c(-c4ccccc4)nc4ccc(C(C)(C)O)cn34)ccc2C(F)(F)F)n1 [Compound 36, N-[6-(1-hydroxy-1-methylethyl)-2-phenylimidazo[1,2-a]pyridin-3-yl]-3-(1-methyl-1H-pyrazol-3-yl)-4-(trifluoromethyl) benzamide] was tested. Which pIC50 did it give?
A: The pIC50 was 9.47.

Q: Cn1ccc(-c2cc(C(=O)Nc3c(-c4ccccc4)nc4ccc(CO)cn34)ccc2C(F)(F)F)n1 [Compound 37, N-[6-(hydroxymethyl)-2-phenylimidazo[1,2-a]pyridin-3-yl]-3-(1-methyl-1H-pyrazol-3-yl)-4-(trifluoromethyl) benzamide] was tested. Which pIC50 did it give?
A: The pIC50 was 8.74.

Q: With Cn1ccc(-c2cc(C(=O)Nc3c(-c4ccccc4)nc4c(CO)cccn34)ccc2C(F)(F)F)n1 [Compound 38, N-[8-(hydroxymethyl)-2-phenylimidazo[1,2-a]pyridin-3-yl]-3-(1-methyl-1H-pyrazol-3-yl)-4-(trifluoromethyl) benzamide] as the compound, how does the pIC50 read?
A: Its pIC50 is 8.62.

Q: With Cn1ccc(-c2cc(C(=O)Nc3c(-c4ccccc4)nc4cc(Br)ccn34)ccc2C(F)(F)F)n1 [Compound 39, N-(7-bromo-2-phenylimidazo[1,2-a]pyridin-3-yl)-3-(1-methyl-1H-pyrazol-3-yl)-4-(trifluoromethyl) benzamide] as the compound, how does the pIC50 read?
A: The pIC50 was 8.57.

Q: With O=C(Nc1c(-c2ccccc2)nc2ccccn12)c1cc(-c2cc[nH]n2)c(C(F)(F)F)cc1F [Compound 40, 2-fluoro-N-(2-phenylimidazo[1,2-a]pyridin-3-yl)-5-(1H-pyrazol-3-yl)-4-(trifluoromethyl) benzamide] as the compound, how does the pIC50 read?
A: Its pIC50 is 8.57.

Q: With C[C@H](O)c1ccn2c(NC(=O)c3ccc(C(F)(F)F)c(-c4ccn(C)n4)c3)c(-c3ccccc3)nc2c1 [Compound 41, N-{7-[(1S)-1-hydroxyethyl]-2-phenylimidazo[1,2-a]pyridin-3-yl}-3-(1-methyl-1H-pyrazol-3-yl)-4-(trifluoromethyl) benzamide] as the compound, how does the pIC50 read?
A: The pIC50 was 9.02.

Q: CC(C)(O)c1ccn2c(NC(=O)c3ccc(C(F)(F)F)c(-c4ncccn4)c3)c(-c3ccccc3)nc2c1 [Compound 43, N-[7-(1-hydroxy-1-methylethyl)-2-phenylimidazo[1,2-a]pyridin-3-yl]-3-pyrimidin-2-yl-4-(trifluoromethyl) benzamide] was tested. Which pIC50 did it give?
A: Its pIC50 is 8.10.

Q: CC(C)(O)c1ccc2nc(-c3ccccc3)c(NC(=O)c3ccc(C(F)(F)F)c(-c4ncccn4)c3)n2c1 [Compound 44, N-[6-(1-hydroxy-1-methylethyl)-2-phenylimidazo[1,2-a]pyridin-3-yl]-3-pyrimidin-2-yl-4-(trifluoromethyl) benzamide] was tested. Which pIC50 did it give?
A: The pIC50 was 8.85.
